This is an account of results in article PMC3433162 (Analytical chemistry, 2012).

pKd: −log10 of the molar value.

As a reminder, the pKd is the negative decadic logarithm of the Kd, by convention in mol/L.

Test [1] deals with bovine carbonic anhydrase (BCA) (Bos taurus, UniProt P00921). The test can be described thus: biochemical. It counts as binding.
A further test has as its target carbonic anhydrase. Particulars: read-out: Kd or Ki; cited from earlier work.

bovine carbonic anhydrase (BCA), sequence (P00921 whole entry): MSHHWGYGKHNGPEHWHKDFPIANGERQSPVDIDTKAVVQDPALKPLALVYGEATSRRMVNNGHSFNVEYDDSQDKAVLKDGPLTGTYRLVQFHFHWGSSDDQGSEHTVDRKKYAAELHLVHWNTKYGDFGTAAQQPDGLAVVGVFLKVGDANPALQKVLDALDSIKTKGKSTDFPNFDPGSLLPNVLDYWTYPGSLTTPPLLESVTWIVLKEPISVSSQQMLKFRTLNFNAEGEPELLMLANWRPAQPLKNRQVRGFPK

Take `Cc1ccc(S(N)(=O)=O)cc1` [4-methylbenzene sulfonamide]: in test [1], the pKd was 6.54.

Consider methane sulfonamide, for which, at carbonic anhydrase, the negative-log Kd (pKd) was 3.49 to 4.15.
